According to patent US20090131468A1, “Bis-(Sulfonylamino) Derivatives in Therapy 065” (AstraZeneca AB, priority 2007, published 2009):
pIC50: −log10 of the molar value.

target: T1, human mPGES-1 (Homo sapiens, UniProt O14684); test: Microsomal prostaglandin E synthase biochemical assay; details: microsome preparation containing human mPGES-1; PGH2 10.8 μM, GSH 2.5 mM, pH 6.8; PGE2 quantified by HTRF; average of at least n=2
T1 sequence (O14684 1-152): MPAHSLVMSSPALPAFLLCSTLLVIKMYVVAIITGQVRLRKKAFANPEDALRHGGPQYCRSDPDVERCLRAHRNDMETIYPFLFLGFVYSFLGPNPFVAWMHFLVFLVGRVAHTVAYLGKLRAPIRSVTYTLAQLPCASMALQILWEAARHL
Experimental: Compounds were tested as inhibitors of microsomal prostaglandin E synthase activity in microsomal prostaglandin E synthase assays and whole cell assays. These assays measure prostaglandin E2 (PGE2) synthesis which is taken as a measure of prostaglandin E synthase activity. Microsomal prostaglandin E synthase biochemical assays used microsomal prostaglandin E synthase-1 in microsomal preparations. The source of the microsomes can be for example interleukin-1β-stimulated human A549 cells (which express human mPGES-1) or Sf9 cells transfected with plasmids encoding human mPGES-1 cDNA.
A solution of test compound was added to a diluted microsome preparation containing human mPGES-1 and pre-incubated for 15 minutes in potassium phosphate buffer pH 6.8 with cofactor glutathione (GSH). Corresponding solutions without test compound were used as positive controls, and corresponding solutions without test compound and without microsomes were used as negative controls. The enzymatic reaction was then started by addition of the substrate PGH2 in an organic solution (dry acetonitrile).
The reaction was stopped after one minute by adding an acidic solution (pH 1.9) of ferric chloride and citrate (final concentrations 7 mM and 47 mM respectively), by which the PGH2 was sequestered (the PGH2 is reduced to mainly 12-hydroxy heptadecatrineoic acid (12-HHT) which is not detected by the subsequent PGE2 detection step). The resulting solution was then pH neutralized by addition of potassium phosphate buffer, prior to diluting an aliquot of the resulting solution in a weak potassium phosphate buffer (50 mM, pH 6.8) containing 0.2% BSA (w/v). […] The PGE2 formed was quantified by use of a commercial HTRF based kit (catalogue #62PG2PEC or #62P2APEC from Cisbio International). 100% activity was defined as the PGE2 production in positive controls subtracted by the PGE2 production in the negative controls. IC50 values were then determined using standard procedures.

Row | Compound | pIC50
1 | NS(=O)(=O)c1ccccc1S(=O)(=O)NC(=O)c1ccc(Br)cc1 [Example 10, 4-Bromo-N-(2-sulfamoylphenyl)sulfonyl-benzamide] | 6.36
2 | NS(=O)(=O)c1ccccc1S(=O)(=O)NC(=O)c1ccc(Br)cc1Cl [Example 11, 4-Bromo-2-chloro-N-(2-sulfamoylphenyl)sulfonyl-benzamide] | 5.26
3 | Cc1cc(C(=O)NS(=O)(=O)c2ccccc2S(N)(=O)=O)ccc1Br [Example 12, 4-Bromo-3-methyl-N-(2-sulfamoylphenyl)sulfonyl-benzamide] | 6.77
4 | NS(=O)(=O)c1ccccc1S(=O)(=O)NC(=O)c1ccc(Br)c(F)c1 [Example 13, 4-Bromo-3-fluoro-N-(2-sulfamoylphenyl)sulfonyl-benzamide] | 6.54
5 | NS(=O)(=O)c1ccccc1S(=O)(=O)NC(=O)c1ccc(Br)cc1F [Example 14, 4-Bromo-2-fluoro-N-(2-sulfamoylphenyl)sulfonyl-benzamide] | 5.85
6 | Cc1cc(Br)ccc1C(=O)NS(=O)(=O)c1ccccc1S(N)(=O)=O [Example 15, 4-Bromo-2-methyl-N-(2-sulfamoylphenyl)sulfonyl-benzamide] | 5.70
7 | NS(=O)(=O)c1ccccc1S(=O)(=O)NC(=O)CC12CC3CC(CC(C3)C1)C2 [Example 16, 2-(1-Adamantyl)-N-(2-sulfamoylphenyl)sulfonyl-acetamide] | 5.28
8 | NS(=O)(=O)c1ccccc1S(=O)(=O)NC(=O)C1CC2CCC1C2 (centres unmarked) [Example 17, N-(2-Sulfamoylphenyl)sulfonylnorbornane-2-carboxamide] | 5.01
9 | NS(=O)(=O)c1ccccc1S(=O)(=O)NC(=O)C1(c2ccccc2)CCCCC1 [Example 18, 1-Phenyl-N-(2-sulfamoylphenyl)sulfonyl-cyclohexane-1-carboxamide] | 7.00
10 | NS(=O)(=O)c1ccccc1S(=O)(=O)NC(=O)c1cccc(OC(F)F)c1 [Example 19, 3-(Difluoromethoxy)-N-(2-sulfamoylphenyl)sulfonyl-benzamide] | 5.06
11 | NS(=O)(=O)c1ccccc1S(=O)(=O)NC(=O)c1ccc(F)c(Br)c1 [Example 20, 3-Bromo-4-fluoro-N-(2-sulfamoylphenyl)sulfonyl-benzamide] | 6.23
12 | NS(=O)(=O)c1ccccc1S(=O)(=O)NC(=O)c1cccc(COCC(F)(F)C(F)F)c1 [Example 21, N-(2-Sulfamoylphenyl)sulfonyl-3-(2,2,3,3-tetrafluoropropoxymethyl)benzamide] | 5.66
13 | Cc1nc(-c2cccc(C(F)(F)F)c2)sc1C(=O)NS(=O)(=O)c1ccccc1S(N)(=O)=O [Example 22, 4-Methyl-N-(2-sulfamoylphenyl)sulfonyl-2-[3-(trifluoromethyl)phenyl]1,3-thiazole-5-carboxamide] | 7.52
14 | NS(=O)(=O)c1ccccc1S(=O)(=O)NC(=O)c1ccc(Cl)cc1F [Example 23, 4-Chloro-2-fluoro-N-(2-sulfamoylphenyl)sulfonyl-benzamide] | 6.00
15 | Cc1nc(-c2ccc(C(F)(F)F)cc2)sc1C(=O)NS(=O)(=O)c1ccccc1S(N)(=O)=O [Example 26, 4-Methyl-N-(2-sulfamoylphenyl)sulfonyl-2-[4-(trifluoromethyl)phenyl]1,3-thiazole-5-carboxamide] | 6.92
16 | Cc1nc(-c2ccc(Cl)cc2)sc1C(=O)NS(=O)(=O)c1ccccc1S(N)(=O)=O [Example 28, 2-(4-Chlorophenyl)-4-methyl-N-(2-sulfamoylphenyl)sulfonyl-1,3-thiazole-5-carboxamide] | 7.36
17 | Cc1nc(-c2ccccc2)sc1C(=O)NS(=O)(=O)c1ccccc1S(N)(=O)=O [Example 29, 4-Methyl-2-phenyl-N-(2-sulfamoylphenyl)sulfonyl-1,3-thiazole-5-carboxamide] | 6.54
18 | NS(=O)(=O)c1ccccc1S(=O)(=O)NC(=O)c1ccc(OCc2ccccc2)cc1 [Example 30, 4-Phenylmethoxy-N-(2-sulfamoylphenyl)sulfonyl-benzamide] | 6.80
19 | CC(C)(C)c1ccc(C(=O)NS(=O)(=O)c2ccccc2S(N)(=O)=O)cc1 [Example 32, N-(2-Sulfamoylphenyl)sulfonyl-4-tert-butyl-benzamide] | 5.82
20 | NS(=O)(=O)c1ccccc1S(=O)(=O)NC(=O)c1ccc(-c2ccccn2)s1 [Example 34, 5-Pyridin-2-yl-N-(2-sulfamoylphenyl)sulfonyl-thiophene-2-carboxamide] | 5.80
21 | NS(=O)(=O)c1ccccc1S(=O)(=O)NC(=O)c1ccc(-c2ccccc2)s1 [Example 35, 5-Phenyl-N-(2-sulfamoylphenyl)sulfonyl-thiophene-2-carboxamide] | 6.28
22 | NS(=O)(=O)c1ccccc1S(=O)(=O)NC(=O)c1ccc(-c2cccc(C(F)(F)F)c2)o1 [Example 37, N-(2-Sulfamoylphenyl)sulfonyl-5-[3-(trifluoromethyl)phenyl]furan-2-carboxamide] | 5.96
23 | CCCc1c(C(=O)NS(=O)(=O)c2ccccc2S(N)(=O)=O)cnn1-c1cc(Cl)cc(Cl)c1 [Example 38, 1-(3,5-Dichlorophenyl)-5-propyl-N-(2-sulfamoylphenyl)sulfonyl-pyrazole-4-carboxamide] | 5.82
24 | NS(=O)(=O)c1ccccc1S(=O)(=O)NC(=O)c1sc2cc(Cl)ccc2c1Cl [Example 39, 3,6-Dichloro-N-(2-sulfamoylphenyl)sulfonyl-benzothiophene-2-carboxamide] | 7.09

Second part, the compound after the results:

Row | pIC50 | Compound
25 | 6.62 | NS(=O)(=O)c1ccccc1S(=O)(=O)NC(=O)c1ccc(-c2cc3ccccc3o2)cn1 [Example 1, 5-Benzofuran-2-yl-N-(2-sulfamoylphenyl)sulfonyl-pyridine-2-carboxamide]
26 | 5.70 | NS(=O)(=O)c1ccccc1S(=O)(=O)NC(=O)c1ccc(-c2cccc(Cl)c2Cl)cn1 [Example 2, 5-(2,3-Dichlorophenyl)-N-(2-sulfamoylphenyl)sulfonyl-pyridine-2-carboxamide]
27 | 8.24 | NS(=O)(=O)c1ccccc1S(=O)(=O)NC(=O)c1ccc(-c2cc3ccccc3o2)cc1 [Example 3, 4-Benzofuran-2-yl-N-(2-sulfamoylphenyl)sulfonyl-benzamide]
28 | 7.40 | NS(=O)(=O)c1ccccc1S(=O)(=O)NC(=O)c1ccc(-c2cc3ccccc3s2)cc1 [Example 4, 4-Benzothiophen-2-yl-N-(2-sulfamoylphenyl)sulfonyl-benzamide]
29 | 7.64 | NS(=O)(=O)c1ccccc1S(=O)(=O)NC(=O)c1ccc(-c2nc3ccccc3s2)cc1 [Example 5, 4-Benzothiazol-2-yl-N-(2-sulfamoylphenyl)sulfonyl-benzamide]
30 | 5.96 | NS(=O)(=O)c1ccccc1S(=O)(=O)NC(=O)c1ccc(-c2nc3cnccc3o2)cc1 [Example 6, 4-(7-Oxa-3,9-diazabicyclo [4.3.0]nona-2,4,8,10-tetraen-8-yl)-N-(2-sulfamoylphenyl)-sulfonyl-benzamide]
31 | 6.00 | NS(=O)(=O)c1ccccc1S(=O)(=O)NC(=O)c1ccc(-c2nc3cccnc3o2)cc1 [Example 7, 4-(7Oxa-5,9-diazabicyclo [4.3.0]nona-2,4,8,10-tetraen-8-yl)-N-(2-sulfamoylphenyl)-sulfonyl-benzamide]
32 | 7.07 | NS(=O)(=O)c1ccccc1S(=O)(=O)NC(=O)c1ccc(-c2nc3ccccc3o2)cc1 [Example 8, 4-Benzooxazol-2-yl-N-(2-sulfamoylphenyl)sulfonyl-benzamide]
33 | 7.11 | NS(=O)(=O)c1ccccc1S(=O)(=O)NC(=O)c1ccc2cc(-c3ccccc3)oc2c1 [Example 9, 2-Phenyl-N-(2-sulfamoylphenyl)sulfonyl-benzofuran-6-carboxamide]
34 | 5.27 | NS(=O)(=O)c1ccccc1S(=O)(=O)NC(=O)c1ccc(Cl)cc1Cc1ccccc1 [Example 24, 2-Benzyl-4-chloro-N-(2-sulfamoylphenyl)sulfonyl-benzamide]
35 | 7.70 | NS(=O)(=O)c1ccccc1S(=O)(=O)NC(=O)c1ccc2oc(-c3ccccc3)cc2c1 [Example 25, 2-Phenyl-N-(2-sulfamoylphenyl)sulfonyl-benzofuran-5-carboxamide]
36 | 6.49 | NS(=O)(=O)c1ccccc1S(=O)(=O)NC(=O)c1ccc(-c2ccccc2)cc1 [Example 31, 4-Phenyl-N-(2-sulfamoylphenyl)sulfonyl-benzamide]
37 | 5.34 | Cn1c(C(=O)NS(=O)(=O)c2ccccc2S(N)(=O)=O)cc2ccccc21 [Example 33, 1-Methyl-N-(2-sulfamoylphenyl)sulfonyl-indole-2-carboxamide]
38 | 6.55 | NS(=O)(=O)c1ccccc1S(=O)(=O)NC(=O)c1ccc(-c2ccc(Cl)c(Cl)c2)o1 [Example 36, 5-(3,4-Dichlorophenyl)-N-(2-sulfamoylphenyl)sulfonyl-furan-2-carboxamide]
